# Columns and labels:
# wheat [1] = experiment: preemergence plant growth test; assay type: in vivo; details: 2k/ha
# Text: (§1) The imidazole and triazole compounds of the invention are useful as plant growth modifiers when applied to plants. The compounds are applied to the immediate area where the plant is developing and growing, including preemergence and postemergence application.
# soybeans [2] = experiment: preemergence plant growth test; assay type: in vivo; details: 2k/ha
# Text: as §1
# cassia [3] = experiment: preemergence plant growth test; assay type: in vivo; details: 2k/ha
# Text: as §1
# nutsedge [4] = experiment: preemergence plant growth test; assay type: in vivo; details: 2k/ha
# Text: as §1
# corn [5] = experiment: preemergence plant growth test; assay type: in vivo; details: 2k/ha
# Text: as §1
# morning glory [6] = experiment: preemergence plant growth test; assay type: in vivo; details: 2k/ha
# Text: as §1
# rice [7] = experiment: preemergence plant growth test; assay type: in vivo; details: 2k/ha
# Text: as §1
# barnyard grass = experiment: preemergence plant growth test; assay type: in vivo; details: 2k/ha
# Text: as §1
# crabgrass = experiment: preemergence plant growth test; assay type: in vivo; details: 2k/ha
# Text: as §1
# cocklebur [8] = experiment: preemergence plant growth test; assay type: in vivo; details: 2k/ha
# Text: as §1
# wild oats [9] = experiment: preemergence plant growth test; assay type: in vivo; details: 2k/ha
# Text: as §1
# [10] = pKa by titration against aqueous NaOH (half neutralization point), buffer range; assay type: physicochemical
# Experimental: The selected acids listed in Table IX (65-84 mg samples, weighed accurately) were respectively dissolved in a mixture of dimethylsulfoxide (25 ml) and water (10-25 ml) and titrated against 0.09995N aqueous sodium hydroxide using an automatic titrimeter (Metrohm Potentiograph Model E 336). According to the general theory of buffer solutions (A. I. Vogel, "A Textbook of Quantitative Inorganic Analysis, Theory and Practice," Longmans, Green, London (1948)), the following relationship exists in a dilute solution (0.05-0.2M) of a weak acid to which small additions of acid or base are made
# pH = pKa + log [Salt]/[Acid]
# The pH of the solution is mainly determined by the pKa of the acid, and in general the buffering capacity (ability to withstand pH change upon addition of acid or base) is maintained within the range 1 acid:10 salt to 10 acid:1 salt, a hundred-fold variation of concentration, or a change of two pH units. The buffer ranges of each of the acids is shown in the third column of Table IX. The acids are useful as buffers in weakly acidic solutions.
# wheat [11] = experiment: postemergence plant growth test; assay type: in vivo; details: 2k/ha
# Text: as §1
# soybeans [12] = experiment: postemergence plant growth test; assay type: in vivo; details: 2k/ha
# Text: as §1
# cassia [13] = experiment: postemergence plant growth test; assay type: in vivo; details: 2k/ha
# Text: as §1
# sorghum = experiment: postemergence plant growth test; assay type: in vivo; details: 2k/ha
# Text: as §1
# bush beans = experiment: postemergence plant growth test; assay type: in vivo; details: 2k/ha
# Text: as §1
# nutsedge [14] = experiment: postemergence plant growth test; assay type: in vivo; details: 2k/ha
# Text: as §1
# corn [15] = experiment: postemergence plant growth test; assay type: in vivo; details: 2k/ha
# Text: as §1
# morning glory [16] = experiment: postemergence plant growth test; assay type: in vivo; details: 2k/ha
# Text: as §1
# rice [17] = experiment: postemergence plant growth test; assay type: in vivo; details: 2k/ha
# Text: as §1
# cocklebur [18] = experiment: postemergence plant growth test; assay type: in vivo; details: 2k/ha
# Text: as §1
# wild oats [19] = experiment: postemergence plant growth test; assay type: in vivo; details: 2k/ha
# Text: as §1
compound,measurement,setting,value
"O=C(O)c1ccccc1-n1cnc(-c2ccccc2)c1 [Example 1, 1-(2-carboxyphenyl)-4-phenylimidazole]",epinastic response,wheat [1],very strong hormonal effect (epinastic response)
same,emergence,soybeans [2]; soybean,inhibited
same,epinastic response,soybeans [2]; soybeans,very strong hormonal effect (epinastic response)
same,epinastic response,cassia [3],very strong hormonal effect (epinastic response)
same,emergence,nutsedge [4],inhibited
same,epinastic response,corn [5],very strong hormonal effect (epinastic response)
same,epinastic response,morning glory [6],very strong hormonal effect (epinastic response)
same,epinastic response,rice [7],very strong hormonal effect (epinastic response)
same,epinastic response,barnyard grass,very strong hormonal effect (epinastic response)
same,emergence,crabgrass,inhibited
same,epinastic response,cocklebur [8],very strong hormonal effect (epinastic response)
same,emergence,wild oats [9],inhibited
same,pKa,"[10]; dimethylsulfoxide/water, 0.09995N NaOH, half neutralization point",4.91
same,Buffer Range,[10]; range 1 acid:10 salt to 10 acid:1 salt,3.9 - 5.9 pH Units
same,epinastic response,wheat [11],epinastic response
same,epinastic response,soybeans [12],epinastic response
same,epinastic response,cassia [13],epinastic response
same,epinastic response,sorghum,epinastic response
same,epinastic response,bush beans,epinastic response
same,growth,nutsedge [14],retarded
same,epinastic response,corn [15],epinastic response
same,epinastic response,morning glory [16],epinastic response
same,epinastic response,rice [17],epinastic response
same,epinastic response,cocklebur [18],epinastic response
same,epinastic response,wild oats [19],epinastic response

# Source: patent US4069035A, “1-(2-Carboxyaryl)-3-aryl-1,2,4-triazoles and use as herbicides” (E. I. Du Pont de Nemours and Company, priority 1976, dated 1978)
